# Measurements taken from patent US6734184B1, “Arylpiperazines and their use as metalloproteinase inhibiting agents (MMP)” (AstraZeneca AB, priority 1998, dated 2004).
row,melting point,SMILES
1,130 to 140 °C,"O=CN(O)C(CCc1cccnc1)CS(=O)(=O)N1CCC(Oc2ccc(Cl)cn2)CC1 (stereo not drawn) [Example 14, N-{1-[({4-[(5-Chloropyridin-2-yl)oxy]piperidino}sulfonyl)methyl]-3-pyridin-3-ylpropyl}-N-hydroxyformamide]"
2,155 to 157 °C,O=CN(O)C(CCc1ccccc1)CS(=O)(=O)N1CCN(c2cc(Cl)ncn2)CC1 (stereo not drawn) [N-[1-({[4-(6-chloropyrimidin-4-yl)piperazino]sulphonyl}methyl)-3-phenylpropyl]-N-hydroxyformamide]
3,118 to 120 °C,O=CN(O)C(COCc1ccccc1)CS(=O)(=O)N1CCN(c2cc(Cl)ncn2)CC1 (stereo not drawn) [N-[2-(benyloxy)-1-({[4(6-chloropyrimidin-4-yl)piperazino]sulphonyl}methyl)ethyl]-N-hydroxyformamide]
